Results from PubChem BioAssay AID328 (DTP/NCI, 2004).
Where “and” joins values, the source holds several entries; their conditions need not be identical. Equal entries are not always repeated. Toxic doses and inconclusive results are not listed.

System: BDF1 mice, P388 leukemia ip, median survival T/C
Assay: NCI In Vivo Anticancer Drug Screen. Data for tumor model P388 Leukemia (intraperitoneal) in B6D2F1 (BDF1) mice
Settings: endpoint: median survival time, higher = longer survival
In short: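 Vehicle-dosed animals serve as the reference; survival of compound-dosed, tumour-implanted mice is divided by it.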

[1] = dose: 12.5 mg/kg/injection, schedule: Q01DX009 (ip), vehicle: Klucel (hydroxypropylcellulose) (HPC)
[2] = dose: 12.5 mg/kg/injection, schedule: Q04DX003 (ip), vehicle: saline with Tween-80
[3] = dose: 25.0 mg/kg/injection, schedule: Q01DX009 (ip), vehicle: saline with Tween-80
[4] = dose: 50.0 mg/kg/injection, schedule: Q04DX003 (ip), vehicle: saline with Tween-80
[5] = dose: 100.0 mg/kg/injection, schedule: Q04DX003 (ip), vehicle: saline with Tween-80
[6] = dose: 200.0 mg/kg/injection, schedule: Q04DX003 (ip), vehicle: saline with Tween-80
[7] = dose: 400.0 mg/kg/injection, schedule: Q04DX003 (ip), vehicle: saline with Tween-80
[8] = dose: 100.0 mg/kg/injection, schedule: Q01DX009 (ip), vehicle: saline with Tween-80
[9] = dose: 200.0 mg/kg/injection, schedule: Q01DX009 (ip), vehicle: saline with Tween-80
[10] = dose: 400.0 mg/kg/injection, schedule: Q01DX009 (ip), vehicle: saline with Tween-80

Cc1nc2ccccc2nc1CBr
T/C (dose: 2.66 mg/kg/injection, schedule: Q01DX009 (ip), vehicle: saline with Tween-80): 109 % of control | T/C (dose: 3.12 mg/kg/injection, schedule: Q01DX009 (ip), vehicle: Klucel (hydroxypropylcellulose) (HPC)): 111 % of control | T/C (dose: 6.0 mg/kg/injection, schedule: Q01DX009 (ip), vehicle: saline with Tween-80): 122 % of control | T/C (dose: 6.25 mg/kg/injection, schedule: Q01DX009 (ip), vehicle: Klucel (hydroxypropylcellulose) (HPC)): 122 % of control | T/C (dose: 6.25 mg/kg/injection, schedule: Q04DX003 (ip), vehicle: saline with Tween-80): 109 % of control | T/C (dose: 6.3 mg/kg/injection, schedule: Q01DX009 (ip), vehicle: Klucel (hydroxypropylcellulose) (HPC)): 105 % of control | T/C [1]: 105 % of control | T/C [2]: 109 % of control | T/C [3]: 122 % of control | T/C (dose: 25.0 mg/kg/injection, schedule: Q04DX003 (ip), vehicle: saline with Tween-80): 113 % of control

OC(CBr)(c1ccccc1)c1ccccc1
T/C [2]: 95 % of control | T/C [4]: 100 % of control and 115 % of control | T/C [5]: 99 % of control | T/C [6]: 112 % of control | T/C [7]: 111 % of control

S=c1cc(-c2ccco2)ss1
T/C [3]: 112 % of control | T/C (dose: 50.0 mg/kg/injection, schedule: Q01DX009 (ip), vehicle: saline with Tween-80): 95 % of control | T/C [8]: 98 % of control | T/C [5]: 110 % of control | T/C [9]: 102 % of control | T/C [6]: 100 % of control | T/C [10]: 107 % of control | T/C [7]: 101 % of control

Cc1ccc(CCCCCCCCCCCC(=O)O)cc1
T/C [8]: 96 % of control | T/C [5]: 95 % of control | T/C [9]: 92 % of control | T/C [6]: 100 % of control | T/C [10]: 107 % of control | T/C [7]: 110 % of control

c1ccc([B-]2([C+]3CCCCC3)N3CCCCC3C3CCCCN32)cc1 (stereo unspecified)
T/C [1]: 119 % of control | T/C (dose: 25.0 mg/kg/injection, schedule: Q01DX009 (ip), vehicle: Klucel (hydroxypropylcellulose) (HPC)): 119 % of control

CNC(=S)N/N=C(/C)CCC/C(C)=N/NC(=S)NC
T/C (dose: 6.25 mg/kg/injection, schedule: Q01DX009 (ip), vehicle: saline with Tween-80): 106 % of control | T/C (dose: 12.5 mg/kg/injection, schedule: Q01DX009 (ip), vehicle: saline with Tween-80): 108 % of control | T/C [3]: 99 % of control

CN(C)c1ccc(C(C[N+](=O)[O-])(c2ccc(N(C)C)cc2)c2ccc(N(C)C)cc2)cc1
T/C (dose: 100.0 mg/kg/injection, schedule: Q04DX003 (ip), vehicle: Klucel (hydroxypropylcellulose) (HPC)): 100 % of control | T/C (dose: 200.0 mg/kg/injection, schedule: Q04DX003 (ip), vehicle: Klucel (hydroxypropylcellulose) (HPC)): 90 % of control | T/C (dose: 400.0 mg/kg/injection, schedule: Q04DX003 (ip), vehicle: Klucel (hydroxypropylcellulose) (HPC)): 100 % of control

CC(C)(C)c1ccc(/C(N)=N/O)cc1
T/C (dose: 50.0 mg/kg/injection, schedule: Q01DX005 (ip), vehicle: saline with Tween-80): 92 % of control | T/C (dose: 100.0 mg/kg/injection, schedule: Q01DX005 (ip), vehicle: saline with Tween-80): 101 % of control

NC(=S)N/N=C\c1ncnc2nc[nH]c12
T/C (dose: 1.0 mg/kg/injection, schedule: Q01DX009 (ip), vehicle: Klucel (hydroxypropylcellulose) (HPC)): 107 % of control | T/C (dose: 2.0 mg/kg/injection, schedule: Q01DX009 (ip), vehicle: Klucel (hydroxypropylcellulose) (HPC)): 111 % of control | T/C (dose: 4.0 mg/kg/injection, schedule: Q01DX009 (ip), vehicle: Klucel (hydroxypropylcellulose) (HPC)): 150 % of control | T/C (dose: 8.0 mg/kg/injection, schedule: Q01DX009 (ip), vehicle: Klucel (hydroxypropylcellulose) (HPC)): 160 % of control | T/C (dose: 16.0 mg/kg/injection, schedule: Q01DX009 (ip), vehicle: Klucel (hydroxypropylcellulose) (HPC)): 175 % of control | T/C (dose: 32.0 mg/kg/injection, schedule: Q01DX009 (ip), vehicle: Klucel (hydroxypropylcellulose) (HPC)): 185 % of control

CCCCCCCCCCCCCCCOc1ccc(C)cc1
T/C (dose: 50.0 mg/kg/injection, schedule: Q04DX003 (ip), vehicle: saline sonified): 90 % of control | T/C (dose: 100.0 mg/kg/injection, schedule: Q04DX003 (ip), vehicle: saline sonified): 100 % of control | T/C (dose: 200.0 mg/kg/injection, schedule: Q04DX003 (ip), vehicle: saline sonified): 90 % of control

CCCC(=O)NC1=C(N2CC2)C(=O)C(NC(=O)CCC)=C(N2CC2)C1=O
T/C (dose: 0.44 mg/kg/injection, schedule: Q04DX003 (ip), vehicle: saline with Tween-80): 104 % of control | T/C (dose: 0.66 mg/kg/injection, schedule: Q04DX003 (ip), vehicle: saline with Tween-80): 109 % of control | T/C (dose: 1.0 mg/kg/injection, schedule: Q01DX009 (ip), vehicle: saline): 213 % of control | T/C (dose: 1.0 mg/kg/injection, schedule: Q04DX003 (ip), vehicle: saline with Tween-80): 122 % of control | T/C (dose: 1.5 mg/kg/injection, schedule: Q04DX003 (ip), vehicle: saline with Tween-80): 100 % of control | T/C (dose: 2.0 mg/kg/injection, schedule: Q01DX009 (ip), vehicle: saline): 200 % of control | T/C (dose: 2.5 mg/kg/injection, schedule: Q04DX003 (ip), vehicle: saline with Tween-80): 150 % of control | T/C (dose: 4.0 mg/kg/injection, schedule: Q01DX009 (ip), vehicle: saline): 285 % of control | T/C (dose: 5.0 mg/kg/injection, schedule: Q04DX003 (ip), vehicle: saline with Tween-80): 204 % of control | T/C (dose: 10.0 mg/kg/injection, schedule: Q04DX003 (ip), vehicle: saline with Tween-80): 250 % of control

COC(OC)c1cc(=O)[nH]c(NC(=O)C(Cl)Cl)n1
T/C [5]: 112 % of control | T/C [6]: 95 % of control | T/C [7]: 104 % of control

O=C1C=CC(=O)N1c1ccc(Cl)cc1
T/C (dose: 1.25 mg/kg/injection, schedule: Q04DX003 (ip), vehicle: Klucel (hydroxypropylcellulose) (HPC)): 114 % of control | T/C (dose: 2.5 mg/kg/injection, schedule: Q01DX009 (ip), vehicle: Klucel (hydroxypropylcellulose) (HPC)): 159 % of control | T/C (dose: 2.5 mg/kg/injection, schedule: Q04DX003 (ip), vehicle: Klucel (hydroxypropylcellulose) (HPC)): 122 % of control | T/C (dose: 5.0 mg/kg/injection, schedule: Q04DX003 (ip), vehicle: Klucel (hydroxypropylcellulose) (HPC)): 108 % of control | T/C (dose: 10.0 mg/kg/injection, schedule: Q04DX003 (ip), vehicle: Klucel (hydroxypropylcellulose) (HPC)): 107 % of control | T/C (dose: 20.0 mg/kg/injection, schedule: Q01DX009 (ip), vehicle: Klucel (hydroxypropylcellulose) (HPC)): 115 % of control

C[N+]12CCN(CC1)CC2
T/C (dose: 100.0 mg/kg/injection, schedule: Q01DX009 (ip), vehicle: saline): 91 % of control | T/C (dose: 200.0 mg/kg/injection, schedule: Q01DX009 (ip), vehicle: saline): 91 % of control | T/C (dose: 400.0 mg/kg/injection, schedule: Q01DX009 (ip), vehicle: saline): 100 % of control

C[C@]12CC[C@H](OC3OC(CO)C(O)C(O)C3O)C[C@H]1CC[C@@H]1[C@@H]2CC[C@]2(C)[C@@H](C3=CCOC3=O)CC[C@]12O (stereo partly specified)
T/C (dose: 0.1 mg/kg/injection, schedule: Q01DX010 (ip), vehicle: saline): 110 % of control | T/C (dose: 0.2 mg/kg/injection, schedule: Q01DX010 (ip), vehicle: saline): 105 % of control | T/C (dose: 0.25 mg/kg/injection, schedule: Q01DX010 (ip), vehicle: saline): 100 % of control | T/C (dose: 0.4 mg/kg/injection, schedule: Q01DX010 (ip), vehicle: saline): 105 % of control | T/C (dose: 0.5 mg/kg/injection, schedule: Q01DX010 (ip), vehicle: saline): 100 % of control | T/C (dose: 0.8 mg/kg/injection, schedule: Q01DX010 (ip), vehicle: saline): 100 % of control | T/C (dose: 1.0 mg/kg/injection, schedule: Q01DX010 (ip), vehicle: saline): 100 % of control

O=C(Nc1ccc(NC(=O)c2ccc(C3=NCCCN3)cc2)cc1)c1ccc(C2=NCCCN2)cc1
T/C (dose: 33.0 mg/kg/injection, schedule: Q04DX003 (ip), vehicle: saline with Tween-80): 159 % of control | T/C [4]: 153 % of control and 181 % of control | T/C (dose: 75.0 mg/kg/injection, schedule: Q04DX003 (ip), vehicle: saline with Tween-80): 168 % of control and 207 % of control

C1=CCC(COC(c2ccccc2)(c2ccccc2)c2ccccc2)C(COC(c2ccccc2)(c2ccccc2)c2ccccc2)C1 (stereo unspecified)
T/C (dose: 100.0 mg/kg/injection, schedule: Q01DX001 (ip), vehicle: saline with Tween-80): 93 % of control | T/C (dose: 200.0 mg/kg/injection, schedule: Q01DX001 (ip), vehicle: saline with Tween-80): 96 % of control | T/C (dose: 400.0 mg/kg/injection, schedule: Q01DX001 (ip), vehicle: saline with Tween-80): 88 % of control

CNC(=O)c1ccc(C(=O)NC)cc1
T/C [5]: 100 % of control | T/C [6]: 100 % of control | T/C [7]: 109 % of control
